Experimental data published in US8236783B2, “ROS-sensitive iron chelators and methods of using the same” (Duke University, priority 2006, dated 2012).
“Also recorded” adds a separate entry of the source.

Assays:
[1] = 2-deoxyribose oxidative degradation assay (hydroxyl radical formation); details: chelator 0-400 μM, 200 μM H2O2, 10 μM FeCl3, 2 mM ascorbic acid, 15 mM deoxyribose, pH 7.4, 60 min at 37° C.
Method: Effect of chelator concentration on deoxyribose degradation by OH.. A and A0 are the absorbance at 532 nm in the presence or absence of chelator, respectively. Values below A/Ao=1 indicate protection of deoxyribose. Conditions: 200 μM H2O2, 10 μM FeCl3, 2 mM ascorbic acid, 15 mM deoxyribose in pH 7.4 NaHPO4 buffer.
Values of A/Ao above 1 indicate that the additive promotes OH. formation, whereas values below 1 indicate that the additive either scavenges OH. more efficiently than deoxyribose, or that it inhibits iron-catalyzed OH. formation via effective iron chelation.
The formation of hydroxyl radicals was measured by using a 2-deoxyribose oxidative degradation assay (Aruoma, O. I., Deoxyribose Assay for Detecting Hydroxyl Radicals. In Methods in Enzymol., 1994; Vol. 233, pp 57-66; Halliwell, B. et al., Anal. Biochem. 1987, 165, 215-219). In this assay, hydroxyl radicals, generated by reaction of an iron complex with H2O2 in the presence of ascorbic acid as a reducing agent, attack 2-deoxyribose to form malondialdehyde, which upon heating with TBA at low pH yields a pink chromogen (λmax=532 nm). Scavengers that react more effectively with hydroxyl radicals than deoxyribose result in less chromogen formation. Chelators that prevent iron from reacting with H2O2 also result in a decrease in absorption at 532 nm. Many standard buffers such as HEPES and TRIS are hydroxyl radical scavengers; therefore, we performed all assays in 50 mM NaH2PO4 buffered to pH 7.4. Our standard reaction conditions consisted of 1-mL buffered solutions prepared by sequential addition of the following reagents at their final concentrations: chelator (0-400 μM), FeCl3 (10 μM), 2-deoxyribose (15 mM), H2O2 (200 μM) and ascorbic acid (2 mM). The reactions were stirred for 60 min at 37° C., then quenched with 1 mL of TBA (1% w/v in 0.05 M NaOH) and 1 mL of TCA (2.8% w/v in water). After heating to 100° C. for 20 min, the solutions were cooled to room temperature and their absorbance at 532 nm recorded. The data are reported as A/Ao, where A is the absorbance at a 532 nm at a specific chelator concentration, and Ao is the absorbance at 532 nm for the background reaction containing no added chelator. All measurements were done in triplicate, and error bars reflect the standard deviation from triplicate runs.

[2] = time course for iron complex formation following addition of excess H2O2 (UV-vis); format: physicochemical; details: 100 mM H2O2 added to 1.5 mM Fe(NO3)3 and 3.0 mM BSIH in MeOH
Method: FIG. 2. UV-vis spectra showing the formation of [Fe(SIH)]^2+ and [Fe(SIH)2]^+ upon addition of 100 mM H2O2 to a solution of 1.5 mM Fe(NO3)3 and 3.0 mM BSIH in MeOH.
Although the kinetics are complicated by the mono to bis Fe(SIH)x coordination, the data fit a pseudo first-order expression to give kobs=1.6×10^−3 s^−1.

[3] = UV-vis spectra of iron complex formation; format: physicochemical; details: 60 μM BSIH, 30 μM Fe(NO3)3 in MeOH
Excerpt: FIG. 1. […] The expanded view in the inset compares the mono and bis species [Fe(SIH)Cl2(CH3OH)] and [Fe(SIH)2]NO3, respectively.
These two species are distinguishable by a ligand-field band centered at 658 nm that is more pronounced in the mono species compared to the bis species (FIG. 1 inset).

Row | Compound | effect of chelator concentration on deoxyribose degradation, A/Ao at 532 nm [1] | kobs (pseudo first-order) for iron complex formation [2] | iron complex formation after addition of H2O2 (UV-vis spectrum) ([3]; 0.6 mM H2O2 added) | complex formation with Fe^3+ (UV-vis spectrum) ([3]; no H2O2)
1 | CC(=O)N(O)CCCCCNC(=O)CCC(=O)N(O)CCCCCNC(=O)CCC(=O)N(O)CCCCCN [DFO, desferrioxamine] | decrease | – | – | –
2 | CC1(C)OB(c2ccccc2C=NNC(=O)c2ccncc2)OC1(C)C [BSIH, Isonicotinic acid [2-(4,4,5,5-tetramethyl-[1,3,2]dioxaborolan-2-yl)-benzylidene]-hydrazide] | protects against deoxyribose degradation as well as both DFO and SIH | 0.0016 s⁻¹ | results in formation of a new spectrum matching that of [Fe(SIH)2]^+; also recorded: results in a spectrum (open circles) that matches that of [Fe(SIH)2]^+ | does not form a complex; also recorded: no complex formation
3 | CC1(C)OB(c2ccccc2C=O)OC1(C)C [Bsal, (2-formylphenyl)boronic acid pinacol ester] | Neither Bsal nor Sal has a significant influence | – | – | –
4 | O=C(O)CN(CCN(CC(=O)O)CC(=O)O)CC(=O)O [EDTA] | significant increase | – | – | –
5 | O=C(NN=Cc1ccccc1O)c1ccncc1 [SIH, salicylaldehyde isonicotinoyl hydrazone] | decrease | – | – | –
